We go through 92 compounds from PubChem BioAssay AID602236 (The Scripps Research Institute Molecular Screening Center, 2012).

Broadly, the IC50 is the concentration needed to halve the response being measured. The pIC50 is −log10 of the IC50, conventionally taken in molar units.

SMILES strings stand for the structures. pIC50: −log10 of the molar value. Activity calls are given as the source filed them.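 How the source made its calls: active means IC50 of 10 µM or lower; inactive means IC50 above 10 µM.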 A value given as a limit tells only on which side of the number the result lay.

This experiment relates to HEK-293 Gal4-VP16 UAS luciferase reporter, luminescence. In words: VP16 transactivation inhibitor potency, dose response, counter-screen for SRC1 inhibitor project, cell-based, luminescence, high throughput, SRC1 series (AID 602236). On the technique in general: A counterscreen serves to expose hits that act by an unwanted route or on another target.
`COc1cccc(C2=CC(=O)CC(C)(C)C2)c1`: the IC50 was 24 µM (inactive).
For the compound `COc1ccc(Nc2ncnc3ccc(Br)cc23)c(OC)c1`, the IC50 was 15.9 µM (inactive).
Regarding `Cc1cccn2c(=O)c3cc(C(=O)NCCN4CCOCC4)c(=N)n(Cc4cccnc4)c3nc12`, the IC50 was 13.5 µM (inactive).
Still for that read-out and setting: as for `CCc1c(C)nc2c(C)cccc2c1SCCC#N`, the figure is > 35.9 µM (inactive); as for `O=C(O)c1ccccc1-c1c2cc(I)c(=O)c(I)c-2oc2c(I)c(O)c(I)cc12`, > 35.9 µM (inactive); as for `Cc1c(/C(O)=C2/C(=O)C(=O)N(Cc3cccnc3)C2c2ccccn2)cnn1-c1ccccc1` (configuration not stated), > 35.9 µM (inactive).
In the case of `Oc1ccc(C=NNc2ccccn2)c(O)c1`, the IC50 is > 35.9 µM (inactive).
Still for that read-out and setting: next, `CCOc1cccc(/C=N/NC(=O)c2cc(C3CC3)[nH]n2)c1O`: 11.2 µM (inactive); `COc1ccc(OC)c(/C=C2\NC(=O)NC2=O)c1`: 10.8 µM (inactive); `CCN1CCN(C(=S)c2ccc(-c3ccccc3)cc2)CC1`: 29.5 µM (inactive).
Consider `COc1cc(OC)c2cc(C(=O)N/N=C/c3cccc(OC)c3O)[nH]c2c1`, for which the negative logarithm of the IC50 (pIC50) was 5.03.
Regarding `Cc1ccc2nc(C(F)(F)F)c(C#N)c(N)c2c1`, the IC50 was 10.4 µM (inactive).
On the same count and under the same terms, as for `O=C(COC(=O)c1ccc[nH]c1=O)Nc1ccc(N2CCCCC2)cc1`, the figure is > 35.9 µM (inactive); as for `CCn1c2ccccc2c2cnc(N=CN(C)C)c(C#N)c21`, 28.9 µM (inactive); as for `CC1CCCCN1c1ncnc2ccccc12` (configuration not stated), 13.4 µM (inactive).
With `Cc1ccc(/C=C2\SC(=S)N(CCCC(=O)NC3CCCC3)C2=O)cc1`, the pIC50 is 5.27.
Turning to `Nc1ccn(C2OC(CO)C(O)C2O)c(=O)n1` (configuration not stated), the IC50 was 21.7 µM (inactive).
With `Cn1c(=O)c2[nH]c(COc3ccc(C(C)(C)C)cc3)nc2n(C)c1=O`, the negative-log IC50 (pIC50) is 5.08.
Regarding `Cc1nn(C(C)(C)C)c(C)c1/C=N/OC(=O)Nc1ccc(Cl)c(Cl)c1`, the IC50 is 13.9 µM (inactive).
As to `Cc1nc2c(-c3ccc(F)cc3)cnn2c(N)c1-c1ccccc1`, the IC50 was 14.5 µM (inactive).
`CN(C)C=Nc1c(C(=O)c2ccccc2)sc2nccc(N(C)C)c12`: the IC50 was > 35.9 µM (inactive).
Regarding `C=CCn1c(O)c(C(C)=NCc2cc(OC)cc(OC)c2)c(=O)[nH]c1=O`, the pIC50 is 5.10.
On the same count and under the same terms, as for `CN(C)c1ccc(Nc2ncnc3ccc(Br)cc23)cc1`, the figure is 5.50.
Turning to `CN(C)C(=O)c1cccc(COc2ccc(N3C(N)=NC(N)=NC3(C)C)cc2Cl)c1`, the IC50 is > 35.8 µM (inactive).
On to `Fc1cccc(CSc2nnc3ccc(-c4ccncc4)nn23)c1`, for which the IC50 was > 35.8 µM (inactive).
Turning to `O=C1c2cccc(OCc3ccc(F)cc3)c2CCN1Cc1ccccc1`, the IC50 is 10.7 µM (inactive).
Regarding `CCN(c1ccccc1)S(=O)(=O)c1cc(C(=O)Nc2ccc(Br)cc2)ccc1F`, the pIC50 was 5.08.
For the compound `COC(=O)c1sc2cnccc2c1N`, the IC50 is > 35.9 µM (inactive).
As to `COc1cccc(/C=N/NC(=O)CNC(=O)C2COc3ccccc3O2)c1O` (configuration not stated), the IC50 was 11.1 µM (inactive).
`Cc1ccccc1C(=O)/C(C#N)=N/Nc1c(C)n(C)n(-c2ccccc2)c1=O`: the pIC50 was 5.25.
Turning to `O=C(CCn1cnc(-c2ccccc2)c1-c1ccccc1)N/N=C/c1ccccc1O`, the IC50 is 19.9 µM (inactive).
With `O=C(Nc1cccc2c1CCCC2)c1cc([N+](=O)[O-])ccc1Cl`, the negative-log IC50 (pIC50) is 5.03.
As for `O=C(Nc1nc(-c2ccccn2)cs1)c1cccc(-n2cnnn2)c1`, the IC50 was 17 µM (inactive).
With `COc1ccc(/C=C2\CC/C(=C\c3ccc(OC)c(OC)c3)C2=O)cc1OC`, the pIC50 was 5.27.
Regarding `Cc1ccc2occ(/C=N/NC(=O)c3ccncc3)c(=O)c2c1`, the IC50 is 22.8 µM (inactive).
Turning to `COc1cccc(/C=N/NC(=O)C(=O)Nc2ccccc2OC(F)(F)C(F)F)c1O`, the IC50 is 10.7 µM (inactive).
In the case of `CCc1nc(N)nc(N)c1-c1ccc(Cl)c([N+](=O)[O-])c1`, the IC50 was > 35.8 µM (inactive).
For the compound `CCc1ccc(-c2nc(CSCC(=O)NCc3ccco3)c(C)o2)cc1`, the IC50 is 21.8 µM (inactive).
Regarding `COC(CN(C(=O)CCl)C(C(=O)NC1CCCCC1)c1ccccc1C)OC` (configuration not stated), the pIC50 is 5.07.
Regarding `CNc1ncnc(Sc2nc(N)nc3nc[nH]c23)c1[N+](=O)[O-]`, the negative logarithm of the IC50 (pIC50) is 5.24.
Regarding `O=C(O)c1ccccc1C(=O)Nc1ccc(Oc2cccc3ccccc23)cc1`, the IC50 is > 35.9 µM (inactive).
`COc1cc2c(cc1OC)C(NC(=O)C(F)(F)F)CNC2=O` (configuration not stated): the IC50 is 10.8 µM (inactive).
As for `O=C(Nc1c(-c2ccccc2)[nH][nH]c1=O)c1cccc(C(F)(F)F)c1`, the IC50 is > 35.8 µM (inactive).
As to `CCOc1cccc(/C=N/NC(=O)c2cccnc2)c1O`, the pIC50 is 5.07.
As to `CC(C)n1c(-c2cccnc2)nc2cnccc21`, the pIC50 is 5.02.
For `O=[N+]([O-])c1ccc2c(c1)-c1ccccc1C2=NO`, the IC50 was > 35.9 µM (inactive).
In the case of `COc1cc(C2c3cc4c(cc3C(OC3OC5COC(c6cccs6)OC5C(O)C3O)C3COC(=O)C23)OCO4)cc(OC)c1O` (configuration not stated), the IC50 was > 35.9 µM (inactive).
In the case of `NNC(=O)c1cc2ccccc2cc1O`, the IC50 is 18.4 µM (inactive).
For the compound `Cn1nc(C(F)(F)F)c(C#N)c1N1CCN(c2ccc(F)cc2)CC1`, the pIC50 was 5.10.
As for `Cc1nc2sc(C(N)=O)c(N)c2c(C)c1CC(=O)c1ccccc1`, the IC50 is > 35.9 µM (inactive).
For the compound `O=c1ccc2c(ccc3ncccc32)o1`, the IC50 was 18.1 µM (inactive).
Consider `Cc1ccc(N(Cc2cc(=O)[nH]c3ccccc23)C(=O)CCl)c(C)c1`, for which the pIC50 was 5.18.
Turning to `COc1cc(C(=O)NC(=S)NNC(=O)c2cnccn2)cc(OC)c1OC`, the IC50 was 11.9 µM (inactive).
For `O=C(N/N=C(\c1ccccc1)c1ccccn1)c1ccccc1Cl`, the IC50 was 10.8 µM (inactive).
As to `O=C(CCl)N1N=C(c2ccco2)CC1c1ccco1` (configuration not stated), the IC50 is > 12 µM (inactive).
For `Cc1ccc(OCC(=O)c2cc(C)n(-c3ccccc3)c2C)c([N+](=O)[O-])n1`, the IC50 is 12.2 µM (inactive).
Consider `CC(C)(C)NC(=O)C1(C)CCC(=O)N1CCCn1ccnc1` (configuration not stated), for which the IC50 was 12.5 µM (inactive).
For the compound `CC(C)(C)OC(=O)NCC(=O)Oc1cc2oc(=O)cc(-c3ccccc3)c2cc1Cl`, the IC50 was 21.8 µM (inactive).
Still for that read-out and setting: next, `Cc1ccc(OCC(=O)c2cc(C)n(Cc3cccs3)c2C)c([N+](=O)[O-])n1`: 12.1 µM (inactive).
`c1cc2[nH]snc2c2nc(C3CC3)nc12`: the pIC50 was 5.46.
For the compound `Cc1ccc2occ(/C=N/NC(=O)[C@@H](N)Cc3ccccc3)c(=O)c2c1`, the IC50 was 12.7 µM (inactive).
In the case of `COc1cccc(CNc2ncnc3ccc(-c4c(C)noc4C)cc23)c1`, the IC50 is > 35.9 µM (inactive).
As for `CC1CC(C)C(=NNC(N)=O)C(C(O)CC2CCC(=O)NC2=O)C1` (configuration not stated), the IC50 is 12.2 µM (inactive).
Consider `Cc1nc(N2CCC(C(N)=O)CC2)c2c(-c3cccs3)csc2n1`, for which the IC50 is 11.6 µM (inactive).
Turning to `O=C(NC(=S)Nc1ccc(N2CCN(C(=O)c3ccccc3)CC2)cc1)c1cccs1`, the IC50 was 10.5 µM (inactive).
Consider `CC(=O)c1cccc(NC(=O)COc2cc3oc(=O)c(CC(C)O)c(C)c3cc2Cl)c1` (configuration not stated), for which the IC50 was > 35.9 µM (inactive).
Take `C=CCOc1ccc(/C=C2\SC(=S)N(CCC(=O)O)C2=O)cc1`: the IC50 was > 35.9 µM (inactive).
Consider `CC(=O)c1cc2c(C)cc(=O)oc2cc1O`, for which the IC50 is 29 µM (inactive).
On to `COc1cc2c3c([nH]c2cc1F)C(=O)NCC3`, for which the IC50 was 24.8 µM (inactive).
`CNc1cccnc1C=NNC(N)=S`: the IC50 is 18.4 µM (inactive).
Regarding `O=C(CCl)N1N=C(c2ccco2)CC1c1cccs1` (configuration not stated), the IC50 was 16 µM (inactive).
Consider `COc1ccc(-n2cnc3c(sc4nccc(N(C)C)c43)c2=O)cc1`, for which the IC50 was 14.2 µM (inactive).
In the case of `C=CCc1ccccc1OCC(=O)N/N=C/c1ccc(OC(C)=O)cc1OC(C)=O`, the IC50 was 22.8 µM (inactive).
Regarding `S=C(Nc1ccccc1)Nc1ccc(OCc2ccc(Cl)cc2Cl)cc1`, the negative-log IC50 (pIC50) was 5.17.
Same read-out and setting: next, `C=CCNc1ncnc2ccc(Br)cc12`: 5.22.
In the case of `O=C(CCl)N(c1ccccc1)C1CCS(=O)(=O)C1` (configuration not stated), the IC50 was 16.2 µM (inactive).
For the compound `c1cnc2ccc(-n3ccnc3)cc2c1`, the pIC50 was 5.02.
In the case of `Cc1ccc(N=c2c([N+](=O)[O-])nn(-c3ccc4c(c3)OCCO4)n2O)cc1F`, the IC50 is 27 µM (inactive).
`O=C(NC(NC(=S)N1CCOCC1)C(Cl)(Cl)Cl)c1ccc(Cl)cc1` (configuration not stated): the IC50 is 15.5 µM (inactive).
On to `O=[N+]([O-])c1cccc2c1ccc1ncccc12`, for which the IC50 is 12.8 µM (inactive).
`COc1ccccc1/C=C\C(=O)NCC(=O)N/N=C/c1cccc(OC)c1O`: the IC50 is 15.5 µM (inactive).
As to `COc1ccccc1N(C(=O)CCl)c1cn(C(C)=O)c2ccccc12`, the pIC50 was 5.04.
`COc1ccc(/C=C2/SC(=S)N(CCC(=O)O)C2=O)cc1`: the IC50 is > 35.9 µM (inactive).
With `CCN(C(=O)c1cccc(S(=O)(=O)N(C)C)c1)C12CC3CC(CC(C3)C1)C2`, the IC50 is 15.7 µM (inactive).
On to `CS(=O)(=O)Nc1cccc(NC(=O)C2Cc3c(-c4ccco4)ccnc3O2)c1` (configuration not stated), for which the IC50 was 19.3 µM (inactive).
As for `Cc1cccc(C)c1-c1ccc(CN2C(CC(C)C)C(=O)N(Cc3cn(CC4CCCCC4)nn3)CCS2(=O)=O)cc1` (configuration not stated), the IC50 is 16.6 µM (inactive).
With `COc1ccc(Oc2nc3c(c(=O)n(C)c(=O)n3C)n2C)cc1`, the IC50 was 16.6 µM (inactive).
`Cc1ccc(NC(=O)NC2CC(=O)N(c3ccc4c(c3)OCCO4)C2)cc1C` (configuration not stated): the IC50 was 20.6 µM (inactive).
Turning to `NC(=S)NN=Cc1ccc(OC(=O)COc2cc(Cl)c(Cl)cc2Cl)cn1`, the IC50 was > 35.9 µM (inactive).
Turning to `CCCCC(CC)COCCCN=Cc1c(O)[nH]c(=S)[nH]c1=O` (configuration not stated), the IC50 was 10.5 µM (inactive).
Turning to `CCOC(=O)c1cccc2c1-c1ccccc1/C2=N/O`, the pIC50 was 5.09.
Turning to `CCOc1cc(C(N)=O)cc(Br)c1OC`, the IC50 is 17.1 µM (inactive).
